Data taken from PMC5665932, “A novel peptide that improves metabolic parameters without adverse central nervous system effects” (Scientific Reports, 2017).

Legend:
[1] = test system: c-Fos; experiment: Mice brain c-Fos protein immunohistochemistry; format: in vivo; details: 1 mg/kg administrated orally, two hours post administration, C57BL/6J mice, vs vehicle (water), n = 3/group
Description: Mice C57BL/6J (25 ± 2 g; n = 3 per group) were assigned randomly to receive gavage (v.o.) of either vehicle (water), or 1 mg/kg body weight HP or 1 mg/kg Pep19. All solutions were prepared minutes before use. Two hours post administrations mice were deeply anaesthetized with ketamine and xylazine (i.p.; […], respectively) and perfused transcardially with heparinised saline (5000 UI/kg) in phosphate buffer (PB 0.1 M, pH 7.3) followed by 4% paraformaldehyde in PB 0.1 M. The brains were post fixed and kept in 30% sucrose in 0.1 M PB to cryoprotect the tissue. […]
The regions of interest were identified based on a stereotaxic atlas[45]: arcuate hypothalamic nucleus (Arc), ventromedial hypothalamic nucleus (VMN), periaqueductal grey (PAG), orbitofrontal cortex (VO), accumbens nucleus (Acb). The corresponding images were captured using a Nikon Eclipse E800, camera DC-F1 with Nis Element program. cFos positive cells per section were counted manually using ImageJ (NIH/USA). Results are are expressed as the means ± standard error of the mean (SEM) of c-Fos immunoreactive cells per section in each brain area (5 sections/brain/structure). […] Data were statistically analyzed with GraphPad Prism software (GraphPad Software Inc, San Diego, CA, USA).

[2] = test system: UCP1; experiment: UCP1 expression in 3T3-L1 differentiated adipocytes (Western blot); format: cell-based; details: for expression of UCP1 in 3T3-L1 adipose cells: 24 h treatment
Description: 3T3-L1 pre-adipocytes (American Type Culture Collection, Rockville, MD, USA) were cultured in complete medium comprising of DMEM (Dulbecco’s Modified Eagle Medium), containing 10% fetal bovine serum (Life Technologies, Carlsbad, CA, USA), 0.11 mg/mL pyruvate, 0.025 g/L penicillin (Sigma-Aldrich, Saint Louis, MO, USA) and 0.1 g/L streptomycin (Life Technologies, Carlsbad, CA, USA) at 37 °C and 5% CO2. For the experiments analyzing UCP1 expression, 3T3-L1 cells were seeded in 12-well plates at a confluence of 10 × 10^4 cells/mL/well. One day later, cells were differentiated using normal culture medium supplemented with 500 μM isobutylmethylxanthine (Sigma, St. Louis, MO, USA), 1 μM dexamethasone (Sigma, St. Louis, MO, USA), and 0.85 μg/mL bovine insulin (Sigma, St. Louis, MO, USA). After three days, the differentiation medium was changed to normal culture medium supplemented with 0.85 μg/mL bovine insulin. The fresh medium was renewed every 2 days. After 12 days of differentiation, cells were exposed for 24 h with either 5 µM rosiglitazone (RSG, Sigma, St. Louis, MO, USA), HP or Pep19 at different concentrations or with vehicle (normal culture medium plus protease inhibitor cocktail (Roche, Germany). Subsequent experiments were performed after preincubation for 2 min with and in the absence of either 5 µM rosiglitazone, 1 µM […], 1 µM AM251, 1 µM HP or vehicle (normal culture medium plus protease inhibitor cocktail (Roche, Germany) with subsequent addition of 1 µM Pep19 in medium. For Western-blot assays, cells were washed twice with ice-cold PBS, the supernatant was removed, and cells were lysed with 40 µL Laemmli buffer, transfered to tubes, sonicated and heated 95 °C during 5 min. Samples were kept at −20 °C till use. Before using, samples were thawed on ice, centrifuged, and proteins were separated on a 12% SDS-PAGE, followed by transfer to PVDF membranes (Merck Millipore, Darmstadt, Germany). […] Bands were visualized with Super-Signal West Pico Chemiluminescent substrate (Thermo Scientific) and quantified using ImageJ 1.49.

[3] = test system: Male Wistar rats; experiment: Forced swim test; format: in vivo; details: first 5 min of the swim test, n = 6/group (Pep19), n = 8–10/group (rimonabant)
Description: The forced swim test was based on previous designs. Male Wistar rats were placed in a cylindrical plexiglass tank (50 cm high and 30 cm diameter) filled with water (19 °C) up to a level of 25 cm from the bottom. The animal’s behavior during the first 5 min of the swim test was scored by a trained observer and the following measures were taken: (1) time spent swimming, defined as movements of all four limbs, swimming around the tank or diving and (2) time spent floating, defined as the time the animal remained immobile with only occasional slight movements to keep the body balanced and the nose above the water.

[4] = test system: DIO Wistar rats; experiment: Diet-induced obesity model: serum/blood biochemical determinations; format: in vivo; details: oral by gavage, 100 µg/Kg, mean ± SEM
Description: (§1) For the diet-induced obesity (DIO) model, male Wistar rats received instead of water a 20% sucrose solution for 13 consecutive weeks. All animals including controls received food ad libitum. Pep19 was administrated orally by gavages. After 13 weeks of treatment all rats were sacrificed by decapitation (after overnight fasting). Blood from the trunk was collected into tubes without anticoagulants and immediately centrifuged (3000 x g for 15 min at 4 °C), and serum was stored at −20 °C. Blood serum was used for all biochemical determinations. The adipose tissues masses were used to calculate the adiposity index (the percentage of the sum of all white adipose tissue pads in relation to total body weight).
Serum cholesterol and triglycerides were quantified enzymatically using commercial kits from Labtest Diagnóstica (Triglicerides Liquiform andLiquiform, Lagoa Santa, MG, Brazil). Insulin levels were determined using specific rat radioimmunoassay kits (Millipore Corporation, Billerica, MA, USA). Blood glucose concentration was measured by a glucometer (Advantage, Roche Diagnostics Corporation, Indianapolis, USA).

[5] = test system: DIO Wistar rats; experiment: Diet-induced obesity model: body weight, food intake, adipose tissue masses, adiposity index; format: in vivo; details: oral by gavage, 100 µg/Kg, mean ± SEM
Description: as §1

[6] = test system: C57BL/6J mice; experiment: Tetrad cannabinoid tests (catalepsy, tail temperature, locomotor activity, hot plate); format: in vivo; details: n = 6/group
Description: C57BL/6J mice were treated i.p. with Pep19 (0.1 or 1 mg/kg), the CB1R agonist WIN55,212-2 (5 mg/kg) or vehicle (n = 6 per group) and evaluated in the tetrad cannabinoid tests. Another group of animals received Pep19 (0.1 or 1 mg/kg) or saline i.p. for 10 days, once a day. In the last day of treatment the animals were subjected to the tetrad cannabinoid tests 30 minutes after the i.p. administration. The CB1 agonist WIN55,212-2 (5 mg/kg) was administrated i.p. 30 minutes before the experiments as a positive control (n = 6 per group).
It was assayed by the bar test[40], 30 min after drug administration. Briefly, each mouse was placed on a bar oriented parallel to and approximately 4 cm above the bench surface. Cataleptic behavior was defined as the time the animal remained motionless holding on to the bar; cutoff = 300 s[41].
It was determined by using a thermal probe (Thermocom®, Nashua, NH 03062, EUA) positioned 50 cm of the animal. The mean of five pictures of five different tail regions was compared between a basal evaluation and another observation 35 min after drug administration.
It was determined by an open field test, in which a mouse was placed in a circular cage (40 cm diameter), 37 min after drug administration. The distance traveled by the animal was recorded for 10 min by the software ANY-MAZE (Stoelting).
The mouse was placed on a heated plate at 56 °C. An experimenter measured the time it took for the mouse to lick the paws or jump off of the hot plate; cutoff = 30 s[42]. The variation between a basal evaluation and another one taken 45 min after drug administration was defined as the result.

## PVNFKFLSH [HP, Hemopressin, …, inverse agonist of cannabinoid type 1 receptors]
[1]
  number of cFos positive cells in brain areas (Arc, VMN, PAG, VO, Acb): increased the number of cFos positive cells in Arc, VMN and PAG
[2]; 0.1–10 µM, GAPDH loading control
  expression of UCP1 in 3T3-L1 adipose cells: increased the expression of UCP1

## CN(CCOc1ccc(CC2SC(=O)NC2=O)cc1)c1ccccn1 (stereo not shown) [RSG, Rosiglitazone]
[2]; 5 µM, positive control
  expression of UCP1 in 3T3-L1 adipose cells: increased the expression of UCP1

## Cc1c(C(=O)NN2CCCCC2)nn(-c2ccc(Cl)cc2Cl)c1-c1ccc(Cl)cc1 [Rimonabant]
[3]
  forced swim test: time spent swimming and time spent floating: affected both time spent swimming (empty bars) and time spent floating
[4]; glucometer
  Glucose level: 118.3 ± 4.2(n = 9) mg/dl
[4]; serum
  Cholesterol (% of control day zero): 98.51 ± 5.8 (n = 9) % of control day zero
  Triacylglycerol (% of control day zero): 112 ± 7.7 (n = 10) % of control day zero
[4]; serum, radioimmunoassay
  Insulin: 2.71 ± 0.8 (n = 5) ng/mL
[5]
  Body weight (% of control day zero): 111 ± 1.0 (n = 10) % of control day zero
  Gonadal Adipose Tissue weight: 1.75 ± 0.1 (n = 10) g
  Mesenteric Adipose Tissue weight: 0.86 ± 0.1 (n = 9) g
  Retroperitoneal Adipose Tissue weight: 2.10 ± 0.1 (n = 10) g
[5]; percentage of the sum of all white adipose tissue pads in relation to total body weight
  Adiposity Index (total/100 g): 5.85 ± 0.2 (n = 9) total/100 g

## Cc1c(C(=O)NN2CCCCC2)nn(-c2ccc(Cl)cc2Cl)c1-c1ccc(I)cc1 [AM251]
[2]; 1 µM, preincubation 2 min, then Pep19 1 µM for 24 h, 3T3-L1 adipocyte cells
  effect on UCP1 activation by Pep19: prevented UCP1 activation by Pep19

## Cc1c(C(=O)c2cccc3ccccc23)c2cccc3c2n1[C@H](CN1CCOCC1)CO3 [WIN55,212–2]
[6]; 5 mg/kg i.p. 30 minutes before the experiments, P<0.05
  cannabinoid tetrad, positive control of the chronic experiment: affected all parameters evaluated
[6]; 5 mg/kg i.p., positive control, p < 0.05
  cannabinoid tetrad (catalepsy, hot plate, locomotor activity, tail temperature): affected all the parameters evaluated
